Key:
[1] = tested on: MCF7; assay: Antiproliferative activity against human MCF7 cells treated for 48 hrs followed by refreshed every 96 hrs measured on day 10 by Lowry assay; format: functional, cell-based
[2] = target: T1, Estrogen receptor (Homo sapiens) (UniProt P03372); assay: (§1) Antagonist activity at luciferase-fused ERalpha in human HEK293 cells expressing eYFP assessed as reduction of E2-induced estrogenic activity after 2 hrs by BRET assay; format: cell-based
T1 sequence (whole entry): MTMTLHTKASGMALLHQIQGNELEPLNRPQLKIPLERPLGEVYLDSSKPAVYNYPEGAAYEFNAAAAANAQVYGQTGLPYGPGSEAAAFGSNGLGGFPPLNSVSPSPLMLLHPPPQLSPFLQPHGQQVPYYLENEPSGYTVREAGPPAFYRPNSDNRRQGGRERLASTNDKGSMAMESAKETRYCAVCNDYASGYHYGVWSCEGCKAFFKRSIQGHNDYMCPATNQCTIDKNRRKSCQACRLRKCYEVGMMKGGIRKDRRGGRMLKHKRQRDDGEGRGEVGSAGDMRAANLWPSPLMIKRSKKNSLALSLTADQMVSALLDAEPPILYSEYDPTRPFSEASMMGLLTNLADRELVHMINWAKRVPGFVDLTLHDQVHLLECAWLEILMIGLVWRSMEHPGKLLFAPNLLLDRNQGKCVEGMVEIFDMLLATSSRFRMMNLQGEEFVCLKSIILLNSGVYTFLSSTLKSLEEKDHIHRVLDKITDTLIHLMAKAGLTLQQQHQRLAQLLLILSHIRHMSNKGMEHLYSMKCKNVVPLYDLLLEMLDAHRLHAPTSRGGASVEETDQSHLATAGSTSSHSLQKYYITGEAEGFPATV

[3] = target: T2, Estrogen receptor (Homo sapiens, UniProt P03372); assay: as §1; format: cell-based
T2 sequence (P03372 whole entry): T1 sequence (whole entry)

[4] = target: T2, Estrogen receptor; assay: Antagonist activity at ERalpha in human T47D-KBLuc cells assessed as inhibition of E2-induced transcriptional activity by luciferase reporter gene assay; format: cell-based
[5] = target: Histone deacetylase 3 (Homo sapiens, UniProt O15379); assay: Inhibition of human recombinant HDAC3 using Boc-Lys(Ac)-AMC as substrate after 30 mins by fluorescence assay
Histone deacetylase 3, sequence (O15379 whole entry): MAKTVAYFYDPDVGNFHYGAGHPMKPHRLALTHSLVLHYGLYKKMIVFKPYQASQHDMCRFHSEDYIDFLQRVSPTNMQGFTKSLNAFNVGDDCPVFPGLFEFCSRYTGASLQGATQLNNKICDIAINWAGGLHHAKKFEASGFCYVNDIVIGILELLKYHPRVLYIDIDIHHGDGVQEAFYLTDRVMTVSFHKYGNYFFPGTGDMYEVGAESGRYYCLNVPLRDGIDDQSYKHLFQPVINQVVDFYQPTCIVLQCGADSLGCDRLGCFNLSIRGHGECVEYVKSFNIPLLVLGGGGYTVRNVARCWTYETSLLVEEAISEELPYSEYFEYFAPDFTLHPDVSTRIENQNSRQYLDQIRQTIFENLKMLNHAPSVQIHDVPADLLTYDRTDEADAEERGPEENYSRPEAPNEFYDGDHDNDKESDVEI

[6] = target: T3, Protein deacetylase HDAC6 (Homo sapiens, UniProt Q9UBN7); assay: Inhibition of human recombinant HDAC6 using Boc-Lys(Ac)-AMC as substrate after 30 mins by fluorescence assay
T3 sequence (Q9UBN7 whole entry): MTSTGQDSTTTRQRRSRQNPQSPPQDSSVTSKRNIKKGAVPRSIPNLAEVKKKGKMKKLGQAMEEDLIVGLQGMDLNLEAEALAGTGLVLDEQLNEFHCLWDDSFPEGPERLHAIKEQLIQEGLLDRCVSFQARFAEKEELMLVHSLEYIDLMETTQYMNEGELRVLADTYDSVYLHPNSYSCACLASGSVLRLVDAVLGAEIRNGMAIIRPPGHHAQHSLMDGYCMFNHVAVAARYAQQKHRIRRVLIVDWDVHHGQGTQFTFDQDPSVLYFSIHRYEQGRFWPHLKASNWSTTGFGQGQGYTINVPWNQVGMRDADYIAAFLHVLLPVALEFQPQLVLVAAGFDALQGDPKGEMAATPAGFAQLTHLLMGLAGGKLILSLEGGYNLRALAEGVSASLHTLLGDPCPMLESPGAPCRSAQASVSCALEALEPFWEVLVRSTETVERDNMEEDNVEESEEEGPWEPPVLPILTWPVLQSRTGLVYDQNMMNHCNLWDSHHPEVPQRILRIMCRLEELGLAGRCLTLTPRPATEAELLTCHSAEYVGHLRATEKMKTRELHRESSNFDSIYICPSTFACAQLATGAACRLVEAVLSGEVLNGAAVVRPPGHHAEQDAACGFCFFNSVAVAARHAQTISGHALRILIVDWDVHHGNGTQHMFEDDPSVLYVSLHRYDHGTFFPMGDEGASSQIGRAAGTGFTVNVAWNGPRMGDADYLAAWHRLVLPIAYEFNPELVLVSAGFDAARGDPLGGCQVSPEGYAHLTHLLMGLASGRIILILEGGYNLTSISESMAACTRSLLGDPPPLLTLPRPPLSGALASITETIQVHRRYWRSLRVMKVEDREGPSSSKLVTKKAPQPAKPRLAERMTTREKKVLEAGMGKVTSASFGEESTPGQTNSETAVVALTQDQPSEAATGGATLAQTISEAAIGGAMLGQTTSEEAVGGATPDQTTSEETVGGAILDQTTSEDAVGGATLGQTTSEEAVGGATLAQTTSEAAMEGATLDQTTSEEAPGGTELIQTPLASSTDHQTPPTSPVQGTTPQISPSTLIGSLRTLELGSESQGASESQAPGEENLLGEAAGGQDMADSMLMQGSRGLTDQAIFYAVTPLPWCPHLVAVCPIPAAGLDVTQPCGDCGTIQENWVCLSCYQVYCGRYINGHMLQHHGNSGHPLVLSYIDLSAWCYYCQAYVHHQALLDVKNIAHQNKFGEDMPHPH

[7] = tested on: MDA-MB-231; assay: Antiproliferative activity against human MDA-MB-231 cells treated for 48 hrs followed by refreshed every 96 hrs measured on day 10 by Lowry assay; format: functional, cell-based

Compound	IC50 [1]	inhibition [2]	IC50 [3]	IC50 [4]	IC50 [5]	IC50 [6]	IC50 [7]
CCCCN(C)C(=O)CCCCCCCCCC[C@@H]1Cc2cc(O)ccc2[C@H]2CC[C@]3(C)[C@@H](O)CC[C@H]3[C@H]12	930 nM						
C[C@]12CC[C@@H]3c4ccc(O)cc4C[C@@H](CCCCCCCCCCC(=O)NO)[C@H]3[C@@H]1CC[C@@H]2O	2930 nM	Dose-dependent effect	510 nM	1060 nM	960 nM	1.15 µM	
CC/C(=C(\c1ccc(O)cc1)c1ccc(OCCN(C)C)cc1)c1ccccc1 [AFIMOXIFENE]	150 nM						

The remaining compounds from weak to strong by IC50 [1], led by results:

IC50 [1]	inhibition [2]	IC50 [3]	IC50 [4]	IC50 [5]	IC50 [6]	IC50 [7]	Compound
9110 nM	Dose-dependent effect	2550 nM	2100 nM	> 5000 nM	> 50 µM		CCCCN(O)C(=O)CCCCCCCCCC[C@@H]1Cc2cc(O)ccc2[C@H]2CC[C@]3(C)[C@@H](O)CC[C@H]3[C@H]12
1900 nM	Dose-dependent effect	210 nM	720 nM	3180 nM	> 50 µM		C[C@]12CC[C@@H]3c4ccc(O)cc4C[C@@H](CCCCCCCCCCC(=O)Nc4ccccc4N)[C@H]3[C@@H]1CC[C@@H]2O
350 nM							Nc1ccccc1NC(=O)c1ccc(CNC(=O)OCc2cccnc2)cc1 [ENTINOSTAT]
340 nM	Dose-dependent effect	50 nM	180 nM	1550 nM	43.7 µM	5.02 µM	CCCCN(O)C(=O)c1cccc(NC(=O)CCCCCS[C@@H]2Cc3cc(O)ccc3[C@H]3CC[C@]4(C)[C@@H](O)CC[C@H]4[C@@H]32)c1

From ChEMBL document CHEMBL3734665, “Design, synthesis and evaluation of antiestrogen and histone deacetylase inhibitor molecular hybrids” (Bioorg Med Chem, 2015)
